Assays:
Assay in all cases: relative viability (nuclei count vs DMSO), 5 days (fraction); higher = more cells survive
A549 = test system: A549
In short: (§1)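 Cells from lung cancer lines were seeded into 1536-well plates and, one day later, dosed by pin tool. Treatments were either a single drug or a fixed dose of an anchor drug with five library-drug doses (not always all listed) in √10 steps. After 5 days, nuclei were stained in a one-step fixation (final 0.05% Triton X-100, 1% formaldehyde, 1 ug/ml Hoechst) and counted on 4× images, and relative viability is the treated-to-vehicle nuclei ratio, as the median of duplicate plates.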

ABC-1 = test system: ABC-1
In short: as §1

COR-L23 = test system: COR-L23
In short: as §1

Calu-6 = test system: Calu-6
In short: as §1

ChaGo-K-1 = test system: ChaGo-K-1
In short: as §1

EBC-1 = test system: EBC-1
In short: as §1

IA-LM = test system: IA-LM
In short: as §1

NCI-H1299 = test system: NCI-H1299
In short: as §1

NCI-H1437 = test system: NCI-H1437
In short: as §1

NCI-H1623 = test system: NCI-H1623
In short: as §1

NCI-H1651 = test system: NCI-H1651
In short: as §1

NCI-H1703 = test system: NCI-H1703
In short: as §1

SK-MES-1 = test system: SK-MES-1
In short: as §1

SW 1573 = test system: SW 1573
In short: as §1

COc1cc2nccc(Oc3ccc(NC(=O)Nc4cc(C)on4)c(Cl)c3)c2cc1OC [Tivozanib] + COc1cc2c(Oc3ccc(NC(=O)C4(C(=O)Nc5ccc(F)cc5)CC4)cc3F)ccnc2cc1OCCCN1CCOCC1 [Foretinib] (partner 0.25 µM)
relative viability (A549; first compound 0.005 µM): 0.804 | relative viability (A549; first compound 0.01581 µM): 0.987 | relative viability (A549; first compound 0.05 µM): 1.01 | relative viability (A549; first compound 0.1581 µM): 0.976 | relative viability (A549; first compound 0.5 µM): 1.04 | relative viability (ABC-1; first compound 0.005 µM): 1.01 | relative viability (ABC-1; first compound 0.01581 µM): 1.21 | relative viability (ABC-1; first compound 0.05 µM): 1 | relative viability (ABC-1; first compound 0.1581 µM): 1.06 | relative viability (ABC-1; first compound 0.5 µM): 1.02 | relative viability (COR-L23; first compound 0.005 µM): 0.929 | relative viability (COR-L23; first compound 0.01581 µM): 0.943 | relative viability (COR-L23; first compound 0.05 µM): 1.07 | relative viability (COR-L23; first compound 0.1581 µM): 0.976 | relative viability (COR-L23; first compound 0.5 µM): 0.787 | relative viability (Calu-6; first compound 0.005 µM): 0.896 | relative viability (Calu-6; first compound 0.01581 µM): 0.845 | relative viability (Calu-6; first compound 0.05 µM): 0.929 | relative viability (Calu-6; first compound 0.1581 µM): 0.824 | relative viability (Calu-6; first compound 0.5 µM): 0.876 | relative viability (ChaGo-K-1; first compound 0.005 µM): 0.841 | relative viability (ChaGo-K-1; first compound 0.01581 µM): 0.914 | relative viability (ChaGo-K-1; first compound 0.05 µM): 0.869 | relative viability (ChaGo-K-1; first compound 0.1581 µM): 0.889 | relative viability (ChaGo-K-1; first compound 0.5 µM): 0.86 | relative viability (EBC-1; first compound 0.005 µM): 0.103 | relative viability (EBC-1; first compound 0.01581 µM): 0.104 | relative viability (EBC-1; first compound 0.05 µM): 0.11 | relative viability (EBC-1; first compound 0.1581 µM): 0.0953 | relative viability (EBC-1; first compound 0.5 µM): 0.0941 | relative viability (IA-LM; first compound 0.005 µM): 1.21 | relative viability (IA-LM; first compound 0.01581 µM): 1.15 | relative viability (IA-LM; first compound 0.05 µM): 1.24 | relative viability (IA-LM; first compound 0.1581 µM): 1.32 | relative viability (IA-LM; first compound 0.5 µM): 0.94 | relative viability (NCI-H1299; first compound 0.005 µM): 1.05 | relative viability (NCI-H1299; first compound 0.01581 µM): 1.09 | relative viability (NCI-H1299; first compound 0.05 µM): 1.11 | relative viability (NCI-H1299; first compound 0.1581 µM): 1.18 | relative viability (NCI-H1299; first compound 0.5 µM): 1.04 | relative viability (NCI-H1437; first compound 0.005 µM): 1.1 | relative viability (NCI-H1437; first compound 0.01581 µM): 1.22 | relative viability (NCI-H1437; first compound 0.05 µM): 1.18 | relative viability (NCI-H1437; first compound 0.1581 µM): 1.24 | relative viability (NCI-H1437; first compound 0.5 µM): 1.25 | relative viability (NCI-H1623; first compound 0.005 µM): 0.821 | relative viability (NCI-H1623; first compound 0.01581 µM): 0.989 | relative viability (NCI-H1623; first compound 0.05 µM): 0.938 | relative viability (NCI-H1623; first compound 0.1581 µM): 0.888 | relative viability (NCI-H1623; first compound 0.5 µM): 0.914 | relative viability (NCI-H1651; first compound 0.005 µM): 0.784 | relative viability (NCI-H1651; first compound 0.01581 µM): 0.78 | relative viability (NCI-H1651; first compound 0.05 µM): 0.842 | relative viability (NCI-H1651; first compound 0.1581 µM): 0.645 | relative viability (NCI-H1651; first compound 0.5 µM): 0.831 | relative viability (NCI-H1703; first compound 0.005 µM): 0.335 | relative viability (NCI-H1703; first compound 0.01581 µM): 0.385 | relative viability (NCI-H1703; first compound 0.05 µM): 0.384 | relative viability (NCI-H1703; first compound 0.1581 µM): 0.33 | relative viability (NCI-H1703; first compound 0.5 µM): 0.405 | relative viability (SK-MES-1; first compound 0.005 µM): 0.862 | relative viability (SK-MES-1; first compound 0.01581 µM): 0.974 | relative viability (SK-MES-1; first compound 0.05 µM): 1.01 | relative viability (SK-MES-1; first compound 0.1581 µM): 0.981 | relative viability (SK-MES-1; first compound 0.5 µM): 0.924 | relative viability (SW 1573; first compound 0.005 µM): 0.784 | relative viability (SW 1573; first compound 0.01581 µM): 0.828 | relative viability (SW 1573; first compound 0.05 µM): 0.827 | relative viability (SW 1573; first compound 0.1581 µM): 0.886 | relative viability (SW 1573; first compound 0.5 µM): 0.903
